These results are taken from patent US4605744A, “Imidazole derivatives” (Hoffmann-La Roche Inc., priority 1985, dated 1986).

Like-named read-outs stand apart in the source and are kept apart here.

One experiment has as its system K. pneumoniae 503-990A. Nature of the experiment: In vivo activity alone and in combination (PD50, FIC). The conditions noted are these: sc; for ED50: Klebsiella pneumoniae, 503990A, alone. As to the method:
(§1) In Tables 9-14, the results of the in vivo activity against certain microorganisms of compounds I, M and N as given. […] The results in these Tables and the PD50 's were determined by the procedure set forth on page 160 in Beskid et al., Antimicrobial Agents and Chemotherapy, Vol. 20, No. 2 pp. 159-167 (Aug. 1981) for "in vivo studies".
(§2) In the Tables, the fractional inhibitory concentration index (FIC) for synergistic combination of a compound of this invention (X) with known antibiotic compound (Y) is determined by the following formula:
(§3) FIC=(PD50 (X combination)/PD50 (X alone)+(PD50 (Y
(§4) combination)/PD50 (Y alone)
(§5) An FIC of ≤0.60 is indicative of synergy. The synergy rating in the Tables is as follows:
(§6) In the combination, the parts are parts by weight, i.e. 10 to 1 is 10 parts by weight to 1 part by weight.

In another experiment the test system is E. coli 736. Described as above. The conditions noted are these: Escherichia coli, sc, alone. On the procedure: as §1, §2, §3, §4, §5, §6
The test system of a further experiment is E. coli BC5524. Described as above. As to the method: as §1, §2, §3, §4, §5, §6
A further experiment concerns E. cloacae 4633. The experiment is described as above. Conditions: Enterobacter cloacae, 4633, sc, read-out: PD50 (alone). On the procedure: as §1, §2, §3, §4, §5, §6
In another experiment the test system is E. coli 5152. Nature of the experiment: In vivo antibacterial activity (PD50). Conditions: Escherichia coli, 5152, sc, 2 treatments.
The test system of a further experiment is P. aeruginosa 6799. Nature of the experiment: In vivo antibacterial activity (PD50). Conditions: Pseudomonas aeruginosa, 6799, sc, read-out: PD50.
In the next experiment the test system is S. pyogenes 4. Nature of the experiment: In vivo antibacterial activity (PD50). Conditions: Streptococcus pyogenes, 4, sc, sc, 2 treatments, read-out: PD50.
In another experiment the test system is E. aerogenes 8. Nature of the experiment: In vivo antibacterial activity (PD50). Conditions: Klebsiella aerogenes, 8, sc, read-out: PD50, sc, 2 treatments.
Another experiment deals with P. vulgaris 100. Nature of the experiment: In vivo antibacterial activity (PD50). Conditions: Proteus vulgaris; sc; challenge 100 LD50s; 1 treatment; Table 11.
In another experiment the test system is C. freundii 8ASM. Nature of the experiment: In vivo antibacterial activity (PD50). The conditions noted are these: Citrobacter freundii, sc, challenge 1000 LD50s, 1 treatment, Table 11.
In a further experiment the test system is S. schottmuelleri. Nature of the experiment: In vivo antibacterial activity (PD50). Conditions: sc; challenge 163 LD50s; 1 treatment; Table 11. As to the method: as §1
In a further experiment the test system is E. cloacae 214. Nature of the experiment: In vivo antibacterial activity (PD50). The conditions noted are these: Enterobacter cloacae, sc, challenge 3.8 LD50s, 2 treatments, Table 11. On the procedure: as §1
The next experiment relates to S. marcescens SM. Nature of the experiment: In vivo antibacterial activity (PD50). The conditions noted are these: Serratia marcescens; sc; challenge 489 LD50s; 2 treatments; Table 11.
A further experiment deals with S. aureus Smith. Nature of the experiment: In vivo antibacterial activity (PD50). The conditions noted are these: Staphylococcus aureus, sc, challenge 70 LD50s, 2 treatments, Table 11.
The next experiment relates to E. coli 387-1. Nature of the experiment: In vivo antibacterial activity (PD50). The conditions noted are these: Escherichia coli, 3871; sc; challenge 127 LD50s; 1 treatment; Table 11.
The next experiment concerns K. pneumoniae 8357. Nature of the experiment: animal or person. The experiment is classed as in vivo. The conditions noted are these: Klebsiella pneumoniae, 8357, sc, read-out: PD50.
In another experiment the test system is P. aeruginosa 8710. Nature of the experiment: In vivo antibacterial activity (PD50). The conditions noted are these: Pseudomonas aeruginosa, 8710, sc.
A further experiment relates to P. mirabilis 190. Nature of the experiment: In vivo antibacterial activity (PD50). Conditions: Proteus mirabilis, sc, challenge 10^4 LD50s, 1 treatment, Table 11.
A further experiment concerns E. coli 257. Nature of the experiment: In vivo antibacterial activity (PD50). The conditions noted are these: Escherichia coli, 257, sc, challenge >10^4 LD50s, 1 treatment.
For the next experiment, the system named is S. pneumoniae 6302. Nature of the experiment: In vivo antibacterial activity (PD50). Conditions: Streptococcus pneumoniae, 6302, sc, challenge 1000 LD50s, 1 treatment, Table 11.
The subject of the next experiment is P. aeruginosa 503-56. Nature of the experiment: In vivo antibacterial activity (PD50). The conditions noted are these: Pseudomonas aeruginosa, 50356, sc, challenge 50 LD50s, 2 treatments, Table 11.
In the next experiment the test system is S. faecalis C1. Nature of the experiment: In vivo antibacterial activity (PD50). Conditions: Enterococcus faecalis, C1; sc; challenge 10 LD50s; 1 treatment; Table 11.
The next experiment deals with P. aeruginosa 6719. Nature of the experiment: In vivo antibacterial activity (PD50). The conditions noted are these: Pseudomonas aeruginosa, 6719, sc.
In another experiment the test system is P. aeruginosa 6148B. Nature of the experiment: In vivo antibacterial activity (PD50). The conditions noted are these: Pseudomonas aeruginosa, sc.
The test system of another experiment is E. cloacae 6951. Nature of the experiment: In vivo antibacterial activity (PD50). The conditions noted are these: Enterobacter cloacae, 6951, sc, 2 treatments.
Another experiment has as its system P. aeruginosa 6720. Nature of the experiment: In vivo antibacterial activity (PD50). Conditions: Pseudomonas aeruginosa, 6720, sc, 2 treatments.
The subject of the next experiment is K. pneumoniae HE7. Nature of the experiment: In vivo antibacterial activity (PD50). The conditions noted are these: Klebsiella pneumoniae, HE7, sc, 2 treatments.
The test system of a further experiment is S. marcescens S3. Nature of the experiment: In vivo antibacterial activity (PD50). Conditions: Serratia marcescens, S3; sc; challenge 32 LD50s; 2 treatments; Table 11; read-out: PD50.

As to `CC1(C)S[C@@H]2[C@H](NC(=O)[C@H](N)c3ccccc3)C(=O)N2[C@H]1C(=O)O` [Ampicillin, ampicillin, reference compound], the ED50 in the experiment with K. pneumoniae 503-990A amounted to 29 mg/kg; in the experiment on K. pneumoniae 503-990A (Table 14 line (1)), 58 mg/kg; in the experiment on K. pneumoniae 503-990A (Table 14 line (2)), 10 mg/kg; in the experiment on E. coli 736, 5 mg/kg. The “PD50 (alone)” value in the experiment on K. pneumoniae 503-990A stood at 16 mg/kg.
With `CC(=O)OCC1=C(C(=O)O)N2C(=O)[C@@H](NC(=O)Cc3cccs3)[C@H]2SC1` [Cephalothin, cephalothin, reference compound], the ED50 was under 250 mg/kg in the experiment with E. coli BC5524 (Escherichia coli, BC5524, sc, read-out: PD50 (alone), sc) and over 250 mg/kg in the experiment with E. cloacae 4633. For the same molecule, the “PD50 (alone)” value with E. coli BC5524 (sc) was over 250 mg/kg.
Consider `CO/N=C(\C(=O)N[C@@H]1C(=O)N2C(C(=O)O)=C(CSc3nc(=O)c(=O)[nH]n3C)CS[C@H]12)c1csc(N)n1` [Ceftriaxone, ceftriaxone], for which the ED50 in the experiment on E. coli 5152 (challenge 2717 LD50s, Table 10) is under 5 mg/kg; in the experiment with E. coli 5152 (challenge 4780 LD50s, Table 11) it was under 2 mg/kg; in the experiment with P. aeruginosa 6799, under 10 mg/kg; in the experiment on P. aeruginosa 6799 (sc, challenge 71 LD50s, 2 treatments, Table 11) it was 16 mg/kg; with S. pyogenes 4 (challenge 3.3 LD50s, Table 11), under 2 mg/kg; with S. pyogenes 4 (challenge 100 LD50s, Table 10) it was over 2 mg/kg. The ED50 in the experiment with E. aerogenes 8 (challenge 10 LD50s, Table 11) was 6.9 mg/kg; with E. aerogenes 8 (challenge 24 LD50s, Table 10) it was 6.8 mg/kg; with P. vulgaris 100 it was 0.05 mg/kg; in the experiment on C. freundii 8ASM, 0.15 mg/kg; in the experiment on S. schottmuelleri it was under 0.5 mg/kg; with E. cloacae 214, under 10 mg/kg. Also, the ED50 in the experiment on S. marcescens SM was under 2 mg/kg; in the experiment with S. aureus Smith it was 3.2 mg/kg; in the experiment with E. coli 387-1 it was 0.09 mg/kg; in the experiment on K. pneumoniae 8357, 0.03 mg/kg; in the experiment with P. aeruginosa 8710 (alone, challenge 1738 LD50s, Table 13, read-out: PD50 (alone)) it was 41 mg/kg; in the experiment on P. aeruginosa 8710 (challenge >10^4 LD50s, 2 treatments, Table 11, read-out: PD50), 31 mg/kg. For the same molecule, the ED50 with P. mirabilis 190 was 7 µg/kg; with E. coli 257 (Table 10), under 1 mg/kg; in the experiment with E. coli 257 (Table 11) it was under 1 mg/kg; in the experiment on S. pneumoniae 6302, 0.22 mg/kg; with P. aeruginosa 503-56 it was over 250 mg/kg; in the experiment with S. faecalis C1 it was 50 mg/kg. For the same molecule, the ED50 is 18 mg/kg in the experiment with P. aeruginosa 6719 (challenge 2249 LD50s, 3 treatments, Table 10); 15 mg/kg in the experiment with P. aeruginosa 6719 (challenge 2290 LD50s, 2 treatments, Table 11); under 5 mg/kg in the experiment on P. aeruginosa 6148B (challenge 4.5 LD50s, 3 treatments, Table 10); 62 mg/kg in the experiment with P. aeruginosa 6148B (challenge 32 LD50s, 2 treatments, Table 11); 8 mg/kg in the experiment on P. aeruginosa 6148B (challenge 33 LD50s, 3 treatments, Table 10); under 1 mg/kg in the experiment with E. cloacae 6951 (challenge 562 LD50s, Table 10). Also, the ED50 is 0.03 mg/kg in the experiment with E. cloacae 6951 (challenge 3162 LD50s, Table 11); 15 mg/kg in the experiment on P. aeruginosa 6720 (challenge 35 LD50s, Table 11); 14 mg/kg in the experiment on P. aeruginosa 6720 (challenge 3511 LD50s, Table 10); under 1 mg/kg with K. pneumoniae HE7 (challenge 750 LD50s, Table 10); 0.39 mg/kg in the experiment with K. pneumoniae HE7 (challenge 1000 LD50s, Table 11); 0.03 mg/kg with S. marcescens S3.
